Data on one compound can be found in patent publication US10624887B2, “Compositions of (-)-17-(cyclobutylmethyl)morphinan-3,14,-diol” (priority 2010, dated 2020).

Entries after “also recorded” stand apart in the source; their conditions may differ. Read-outs that look alike come from different tables or passages of the source.

Experiment [1] deals with nociception in rats. Description: Eddy's hot plate test. Format: in vivo, Wistar rats. Particulars: butorphanol 1 mg/kg. As for the experimental part:
Heat is often used as a noxious stimulus in models of pain. Typically, the latency of the rat's response to the thermal stimulus is recorded as the dependent variable. To determine whether a test compound has analgesic properties, the latency responses of treated and control rats are evaluated. […] The latency of response will vary depending on the type of heat stimulus used. In the hot-plate assay, the rat is placed on a heated surface and the latency for the rat to respond to the stimulus, by licking its paw or jumping, is recorded. […]
Three groups were employed in the present study with each group comprising of 8 animals. […] Hot plate latency was assessed at 0, 30, 45 and 60 minutes after administration of the butorphanol. Area under the curve was calculated using a graph between % MPE and time. Area under the curve was employed as a quantitative measure of the analgesic effect of the treatments.
Nociceptive threshold was measured with the Eddy's hot plate test. […] Reaction time is expressed as a percentage of the maximum possible effect (MPE): […]
The anti-nociceptive effect following intragastric, intra-ileal and intra-colonic administration was assessed in terms of area under the curve calculated from a graph having time (relative to dosing time point) on the x-axis and percent maximum possible effect (% MPE) on the y-axis. The results were expressed as mean±standard error of means (S.E.M.). […]
Background: In hot-plate and tail-flick tests a longer latency is read as antinociception.

For experiment [2], the system named is streptozotocin (STZ) induced diabetes neuropathy. The experiment can be described thus: Streptozotocin induced diabetic neuropathy, mechanical allodynia (von Frey filaments). It is filed as in vivo, Wistar rats. As to conditions: STZ diabetic neuropathic rats. As for the experimental part: The aim of this study was to evaluate the effect of oral administration of butorphanol in rats with streptozotocin (STZ) induced diabetes neuropathy. A single injection of streptozotocin (STZ) (40-70 mg/kg, i.p.) was used to induce diabetes in rats. The primary measurements were made mechanical and thermal allodynia designed to detect effects of the treatment(s) on neuropathic pain.
Wistar rats weighing 250±20 g were maintained on standard laboratory diet and having free access to tap water ad lib were employed in the present study. They were housed in the animal house and were exposed to 12 hr cycle of light and dark. The experiments were conducted in a semi-sound proof laboratory. Care of the animals was in accordance with guidelines for experimentation on animals.
The STZ-induced diabetes model was adapted from Arison et al (1967). […]
Mechano-allodynia was assessed using von Frey filaments. […] Both hind paws were tested for allodynia and the average of the two was recorded. Results were expressed in grams and determined before and 30 and 60 min after the administration of the test drugs.
The anti-nociceptive effect was plotted assessed having time (relative to dosing time point) on the x-axis and percent maximum possible effect (% MPE) on the y-axis. The results were expressed as mean±standard error of means (S.E.M.). […]

For experiment [3] the following is noted: oral; dosage form that models extended release.
The target of experiment [4] is κ-opioid receptors (Homo sapiens, UniProt P41145). Particulars: cited from earlier work.
Experiment [5] deals with δ-opioid receptor (Homo sapiens, UniProt P41143). Particulars: cited from earlier work.
For experiment [6] the following is noted: cited from earlier work; for duration of analgesic effect (median time to requesting rescue analgesia): acute postsurgical pain.

Chain of κ-opioid receptors (P41145 whole entry): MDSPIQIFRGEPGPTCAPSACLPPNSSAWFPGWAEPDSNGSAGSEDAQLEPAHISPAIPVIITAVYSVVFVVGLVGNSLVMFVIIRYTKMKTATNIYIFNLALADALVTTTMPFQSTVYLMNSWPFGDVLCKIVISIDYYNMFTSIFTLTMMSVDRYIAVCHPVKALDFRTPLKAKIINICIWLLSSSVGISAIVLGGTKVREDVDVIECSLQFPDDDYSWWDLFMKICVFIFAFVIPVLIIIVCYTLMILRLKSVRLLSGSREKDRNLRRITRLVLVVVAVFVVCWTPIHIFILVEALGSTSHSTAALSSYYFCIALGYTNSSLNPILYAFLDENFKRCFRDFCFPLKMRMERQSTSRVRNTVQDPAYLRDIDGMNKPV
Chain of δ-opioid receptor (P41143 whole entry): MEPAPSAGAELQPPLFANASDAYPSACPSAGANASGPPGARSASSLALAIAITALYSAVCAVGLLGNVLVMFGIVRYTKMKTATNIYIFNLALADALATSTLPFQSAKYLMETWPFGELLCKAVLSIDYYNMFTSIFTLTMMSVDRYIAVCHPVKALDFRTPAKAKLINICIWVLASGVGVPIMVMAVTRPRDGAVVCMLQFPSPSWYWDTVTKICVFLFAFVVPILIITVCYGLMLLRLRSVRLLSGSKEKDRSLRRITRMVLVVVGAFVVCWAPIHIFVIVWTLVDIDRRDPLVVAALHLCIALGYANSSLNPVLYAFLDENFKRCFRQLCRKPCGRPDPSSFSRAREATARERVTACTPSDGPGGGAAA

For the compound `Oc1ccc2c(c1)[C@@]13CCCC[C@@]1(O)[C@@H](C2)N(CC1CCC1)CC3` [butorphanol, (−)17-(Cyclobutylmethyl)morphinan-3,14-diol], in experiment [1] (hot plate, FIG. 14), the “antinociceptive effect (area under the curve of % MPE vs time), intra-colonic versus intra-gastric or intra-ileal” value is “significantly greater antinociceptive effect”. For the same compound, the hot plate latency entry in experiment [1] (intra-gastric, intra-ileal and intra-colonic administration, each, rats) is on record as “significant increase”. For the same compound, the mechanical withdrawal threshold entry in experiment [2] (oral 1, 3, 10, 30 mg/kg, FIG. 19) is “dose dependent increase; also recorded: significant increase”. In addition, the “time of peak effect post-administration (mechanical allodynia)” value in experiment [2] (oral) is on record as 30 min. In addition, the therapeutic effect result in experiment [3] is recorded as “robust therapeutic effects”. For the same compound, the “activity at κ-opioid receptors” value in experiment [4] is recorded as “pure agonist”. Besides, the “activity at the δ-opioid receptor” value in experiment [5] was “preponderantly antagonist activity”. The “duration of analgesic effect (median time to requesting rescue analgesia)” value in experiment [6] (1 mg intranasal dose) and in experiment [6] (2 mg intranasal dose) was “less than 2 hours” throughout. For the same compound, the “subjects requiring rescue analgesia during the first 6 hours of observation” value in experiment [6] (1 mg intranasal dose) is on record as “about 90%”; in experiment [6] (2 mg intranasal dose), “about 80%”.
